{"source": "patent US10149818B2", "about": "(UCB PHARMA GMBH, priority 2010, dated 2018)", "key": {"[1]": {"conditions": "IR tablets twice daily; average distribution volume of 50 liters; cited from earlier work"}, "[2]": {"test_system": "subjects with partial-onset seizures", "test": "PK-PD modeling of seizure frequency, Emax model, pooled clinical trials (Example 54)", "assay_type": "in vivo, human", "excerpt": "Objectives of the PK-PD analysis were to evaluate and describe the correlation between the LCM plasma concentration over time (PK parameter) and the reduction of daily seizures over time (PD parameter) based on the pooled data from the previous clinical human trials.\nThe evaluation of PK-PD modeling was done based on the Emax model.\nThe following Table 8 summarizes the PK-PD modeling results using the Emax model.\nThe slope of the linear regression is equal to the mean daily number of seizures.\nBased on the relative difference of the individual slopes during Titration and Maintenance Phase vs Baseline slope and the approximated AUCT,ss,m, the PK-PD evaluation was performed using a linear model, the Emax model, and the Emax 100 model. […] Finally, the Emax model had the lowest weighted sum of squares and was therefore selected as the most appropriate PK-PD model to describe the data. […] The AUC50 is defined as the AUC[…],ss that is needed in individuals to achieve 50% of the maximum effect (decrease in seizure frequency)."}}, "data": [{"smiles": "COC[C@@H](NC(C)=O)C(=O)NCc1ccccc1", "note": "[lacosamide, (R)-2-Acetamido-N-benzyl-3-methoxypropionamide]", "values": [{"measurement": "maximum dosage-normalized lacosamide steady state plasma levels (Cmax, ss, norm)", "setting": "[1]", "value": "40 to 43", "unit": "ng/mL/mg"}, {"measurement": "decrease in partial seizure frequency at AUC50", "setting": "[2]; 50% of the maximum effect", "value": 35, "unit": "%"}, {"measurement": "decrease of seizures as % of the maximum effect", "setting": "[2]; AUC of 67 μg/mL*h (mean dose 200 mg LCM bid in a typical subject)", "value": 65, "unit": "%"}, {"measurement": "AUC,tau,ss corresponding to kd", "setting": "[2]; Emax model", "value": 35, "unit": "µg·h/mL"}, {"measurement": "EC50", "setting": "[2]; Homo sapiens, Emax model, plasma concentration, read-out: kd, concentration for half of the maximum effect", "value": 2.92, "unit": "µg/mL"}, {"measurement": "decrease of seizures as % of the maximum effect", "setting": "[2]; human, in vivo", "value": 74, "unit": "%"}]}]}
